{
  "source": "patent US20250248993A1",
  "about": "“CAMPTOTHECIN DERIVATIVES THAT BIND TO DDX5 PROTEIN AND PRODRUGS THEREOF” (priority 2022, published 2025)",
  "key": {"[1]": {"test_system": "survivin, cIAP2, Mcl-1, and XIAP", "experiment": "Western blot, expression inhibition of anti-apoptotic proteins in FaDu cell line", "assay_type": "cell-based", "conditions": "FaDu, 0, 10, 100 nM, 24 hours"}, "[2]": {"conditions": "dose more than 10 times higher than a clinically applicable dose; cited from earlier work"}, "various cancer lines": {"test_system": "various cancer lines", "conditions": "cited from earlier work"}, "DDX5": {"target": "DDX5 (Homo sapiens, UniProt P17844)", "sequence (P17844 whole entry)": "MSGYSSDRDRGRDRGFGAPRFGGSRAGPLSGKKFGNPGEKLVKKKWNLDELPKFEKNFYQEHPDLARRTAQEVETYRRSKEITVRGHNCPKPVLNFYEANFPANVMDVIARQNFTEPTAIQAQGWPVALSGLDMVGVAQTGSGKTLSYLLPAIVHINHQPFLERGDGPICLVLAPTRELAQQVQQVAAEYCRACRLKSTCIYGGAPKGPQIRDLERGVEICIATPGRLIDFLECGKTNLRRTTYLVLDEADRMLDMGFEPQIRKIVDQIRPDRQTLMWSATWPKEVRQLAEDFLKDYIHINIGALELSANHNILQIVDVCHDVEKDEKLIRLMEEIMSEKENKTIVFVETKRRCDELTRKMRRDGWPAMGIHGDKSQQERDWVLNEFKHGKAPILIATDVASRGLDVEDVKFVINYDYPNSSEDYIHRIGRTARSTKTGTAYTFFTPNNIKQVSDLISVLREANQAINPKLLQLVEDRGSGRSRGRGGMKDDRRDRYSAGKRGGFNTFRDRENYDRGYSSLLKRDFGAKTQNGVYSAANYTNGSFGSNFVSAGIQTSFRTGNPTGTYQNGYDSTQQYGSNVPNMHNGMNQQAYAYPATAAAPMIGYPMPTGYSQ", "experiment": "Western blot, DDX5 degradation in FaDu and A549 cell lines", "assay_type": "cell-based", "set-up": "endogenous in cells; host or cells: FaDu, A549", "conditions": "FaDu and A549, 0, 10, 100 nM"}, "in vivo": {"experiment": "in vivo", "conditions": "NOD SCID, mouse, 1 mg/kg, Plasma Concentration"}, "[3]": {"experiment": "Lactone to carboxylate form conversion at pH 7.4", "assay_type": "physicochemical", "conditions": "pH 7.4, 37° C.", "experimental": "Subsequently, it was centrifuged under conditions of 4° C., 2 minutes, and 13000 RCF, and a supernatant was used as a sample.\nThe column used was a Cortecs C18 2.7 μm, 4.6×50 mm column, and analysis was conducted under the following conditions: 1) 20 min: 5% B, 2) sample injection, 3) 2 min: 5% B, 4) 10 min: 5% B→50% B, and 5) 1 min: 50% B.\nTo measure changes over time, a sample chamber was maintained at 37° C. and a sample was set to be injected at each measurement time. The measurement time was set to 0, 20, 40, 60, 90, 120, 180, 240, 300, 360, 480, 600, and 720 minutes.\nThe content of each of lactone and carboxylate was calculated from the peak area thereof. Since the absorption coefficients of lactone and carboxylate are different, the lactone area was obtained by multiplying the carboxylate area by the equation below."}, "[4]": {"conditions": "mouse, in vivo"}, "FaDu cell line": {"test_system": "FaDu cell line", "experiment": "Cell viability assay (CellTiter-Glo), FaDu cell line", "assay_type": "cell-based", "conditions": "FaDu not expressing ABCG2, 3 days", "experimental": "After 24 hours, the cells were treated with 100 μL of each drug at nine different concentrations (⅕ serial dilutions from 1000 nM). […] Here, a control (drug concentration: 0) that was not treated with a drug was also prepared. The cells were cultured (37° C., 5% CO2) for 3 or 6 days. 100 μL of the CellTiter-Glo reagent (using the CellTiter-Glo® Luminescent Cell Viability Assay kit (Promega, G7571)) was added to each well and pipetted. After incubating at room temperature (RT) for 10 minutes, luminescence was measured."}},
  "note": "Read-outs that look alike come from different tables or passages of the source.",
  "data": [
    {"smiles": "CC[C@@]1(O)C(=O)OCc2c1cc1n(c2=O)Cc2c-1nc1cc3c(c4c1c2[C@@H](N)CC4)OCO3", "note": "(single isomer, unassigned) [PBX-7011]", "values": [
      {"measurement": "expression of anti-apoptotic proteins (survivin, cIAP2, Mcl-1, XIAP)", "setting": "[1]", "result": "decreased as the concentration increased"}
    ]},
    {"smiles": "CC[C@@]1(O)C(=O)OCc2c1cc1n(c2=O)Cc2c-1nc1ccccc1c2CCNC(C)C", "note": "[CKD-602]", "values": [
      {"measurement": "adverse drug reactions", "setting": "[2]", "result": "no adverse drug reactions, except an increase in gastric juice secretion"}
    ]},
    {"smiles": "CC[C@@]1(O)C(=O)OCc2c1cc1n(c2=O)Cc2c-1nc1cc(F)c(C)c3c1c2[C@@H](NC(=O)CO)CC3", "note": "[Dxd]", "values": [
      {"measurement": "cytotoxicity / activity relative to SN-38", "setting": "various cancer lines", "result": "approximately 10 times"}
    ]},
    {"smiles": "CC[C@@]1(O)C(=O)OCc2c1cc1n(c2=O)Cc2c-1nc1cc(F)c(C)c3c1c2[C@@H](N)CC3", "note": "[Exatecan, reference compound]", "values": [
      {"measurement": "expression of anti-apoptotic proteins (survivin, cIAP2, Mcl-1, XIAP)", "setting": "[1]", "result": "strongly inhibit the expression of an anti-apoptotic protein"}
    ]},
    {"smiles": "CC[C@@]1(O)C(=O)OCc2c1cc1n(c2=O)Cc2cc3cc4c(cc3nc2-1)OCO4", "note": "[FL118, reference compound]", "values": [
      {"measurement": "expression of anti-apoptotic proteins (survivin, cIAP2, Mcl-1, XIAP)", "setting": "[1]", "result": "strongly suppresses the expression of an anti-apoptotic protein"},
      {"measurement": "IC50", "setting": "various cancer lines; majority of 140 cell lines originating from various cancer types", "result": "< 100", "unit": "nM"},
      {"measurement": "DDX5 degradation / inhibition", "setting": "DDX5", "result": "superior to other substances"}
    ]},
    {"smiles": "CC[C@@]1(O)C(=O)OCc2c1cc1n(c2=O)Cc2c-1nc1cc3c(c4c1c2[C@@H](NC(=O)CO)CC4)OCO3", "note": "[PBX-7014]", "values": [
      {"measurement": "expression of anti-apoptotic proteins (survivin, cIAP2, Mcl-1, XIAP)", "setting": "[1]", "result": "decreased as the concentration increased"}
    ]},
    {"smiles": "CC[C@@]1(O)C(=O)OCc2c1cc1n(c2=O)Cc2c-1nc1cc3c(c4c1c2[C@@H](NC(=O)[C@@H](C)O)CC4)OCO3", "note": "[PBX-7016]", "values": [
      {"measurement": "expression of anti-apoptotic proteins (survivin, cIAP2, Mcl-1, XIAP)", "setting": "[1]", "result": "decreased as the concentration increased"},
      {"measurement": "concentration at 0.167 h", "setting": "in vivo; ip, Mean", "result": 164, "unit": "ng/mL"},
      {"measurement": "concentration at 1 h", "setting": "in vivo; ip, Mean", "result": 16.1, "unit": "ng/mL"},
      {"measurement": "concentration at 0.167 h", "setting": "in vivo; ip, individual mice", "result": 158, "unit": "ng/mL"},
      {"measurement": "concentration at 0.167 h", "setting": "in vivo; iv, Mean", "result": 59.3, "unit": "ng/mL"},
      {"measurement": "concentration at 1 h", "setting": "in vivo; iv, Mean", "result": 6.9, "unit": "ng/mL"},
      {"measurement": "concentration at 0.167 h", "setting": "in vivo; iv, individual mice", "result": 76.2, "unit": "ng/mL"},
      {"measurement": "DDX5 degradation / inhibition", "setting": "DDX5", "result": "inhibited DDX5 in a concentration-dependent manner"},
      {"measurement": "conversion from lactone form to carboxylate form", "setting": "[3]", "result": "more rapidly and at a higher rate than other reference compounds"},
      {"measurement": "clearance from the blood", "setting": "[4]", "result": "cleared from the blood very quickly"}
    ]},
    {"smiles": "CC[C@@]1(O)C(=O)OCc2c1cc1n(c2=O)Cc2c-1nc1cc3c(c4c1c2[C@@H](NC(=O)[C@@H](O)C1CC1)CC4)OCO3", "note": "[PBX-7024]", "values": [
      {"measurement": "apoptotic efficacy (cell viability)", "setting": "FaDu cell line", "result": "potent apoptotic efficacy"}
    ]},
    {"smiles": "CCc1c2c(nc3ccc(O)cc13)-c1cc3c(c(=O)n1C2)COC(=O)[C@]3(O)CC", "note": "[SN-38]", "values": [
      {"measurement": "IC50", "setting": "various cancer lines; several cell lines", "result": "nanomolar range"}
    ]}
  ]
}
